Like-named read-outs stand apart in the source and are kept apart here.
Legend:
[1] = target: T1, p53 Y220C mutant protein (amino acid residues 94-293) (Homo sapiens, UniProt P04637, Y220C); experiment: Surface Plasmon Resonance (SPR) assay, Kd_kinetic; assay type: binding; details: read-out: SPR P53 Y220C KD kinetic
T1 construct: p53 Y220C mutant protein (amino acid residues 94-293)
In short: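 Biacore 8K SPR; 16 or 20 °C; Tris 50 mM pH 7.5, NaCl 100 mM, DTT 1 mM, Brij35 0.01%, Tween-20 0.05%, DMSO 1%. Kd_kinetic by 1:1 fit.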

[2] = target: T1, p53 Y220C mutant protein (amino acid residues 94-293); experiment: Thermal Shift Assay (TSA), dTM; assay type: binding; details: p53 Y220C, read-out: TSA P53 Y220C dTM; for ΔTm at 10 µM: 10 uM compound
In short: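 Differential scanning fluorimetry with Sypro Orange on 5 μM p53 Y220C residues 94-293, compound tested at 10 μM or 100 μM after 3 hours at 20 °C; buffer 20 mM HEPES, pH7.4, 100 mM NaCl, 1% DMSO.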

[3] = target: p53 Y220C (Homo sapiens, UniProt P04637, Y220C); experiment: Luciferase Reporter Assay (Luc), p53 response element, NClH1299 cells with inducible p53 Y220C; assay type: cell-based; details: luciferase reporter, NClH1299 inducible p53 Y220C, 6 hour; for AC50: read-out: Luc P53 Y220C AC50
In short: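 24 h dox pre-induction (0.5 ug/mL), then 6 h compound; One-Glo luminescent read.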

[4] = test system: NUGC3 p53 Y220C; experiment: Cell Proliferation Assay (CellTiter-Glo, CTG), NUGC3 p53 Y220C; assay type: cell-based; details: Homo sapiens, NUGC-3, 120 h, NUGC3 cells, 5 days, CellTiter-Glo
In short: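 Tet-One inducible p53 Y220C or R273H constructs were stably introduced into NCI-H1299 by lentiviral transduction; NUGC3 was used as is. Cells (250-500 per well) were exposed to compound for 5 days, then CellTiter-Glo was added for 10 min at room temperature and IC50 was calculated from luminescence.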

[5] = test system: H1299 p53 Y220C; experiment: Cell Proliferation Assay (CellTiter-Glo, CTG), H1299 p53 Y220C (NClH1299-inducible p53 Y220C); assay type: cell-based; details: Homo sapiens, NCI-H1299, 120 h, NClH1299-inducible p53 Y220C cells, 5 days, CellTiter-Glo
In short: (§1)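 NClH1299 lines stably transduced with Tet-inducible p53 Y220C or R273H, plus NUGC3, were treated with compound for 5 days at 250-500 cells/well. IC50 derived from CellTiter-Glo luminescent signal after 10 min room-temperature incubation.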

[6] = test system: H1299 p53 R273H; experiment: Cell Proliferation Assay (CellTiter-Glo, CTG), H1299 p53 R273H (NClH1299-inducible p53 R273H); assay type: cell-based; details: Homo sapiens, NCI-H1299, 120 h, NClH1299-inducible p53 R273H cells, 5 days, CellTiter-Glo
In short: as §1

SMILES: CCNC(=O)c1cnc(OC)c(NCC#Cc2cc3c(N[C@@H]4CCN(C)C[C@@H]4F)nccn3c2SC(F)(F)F)c1 [Example 291]
- Kd ([1]; SPR, p53 Y220C): < 10 nM
- ΔTm at 10 µM [2]: ≥ 10 °C
- ΔTm at 100 µM ([2]; 100 uM compound): ≥ 10 °C
- AC50 [3]: < 750 nM
- Emax [3]: > 90%
- IC50 [4]: < 750 nM
- IC50 [5]: < 750 nM
- IC50 [6]: ≥ 10000 nM

SMILES: CNC(=O)c1cnc(OC)c(NCC#Cc2cc3c(N[C@@H]4CCNC[C@@H]4F)nccn3c2SC(F)(F)F)c1 [Example 292]
- Kd ([1]; SPR, p53 Y220C): < 10 nM
- ΔTm at 10 µM [2]: ≥ 10 °C
- AC50 [3]: < 750 nM
- Emax [3]: > 90%
- IC50 [4]: < 750 nM
- IC50 [5]: < 750 nM
- IC50 [6]: ≥ 10000 nM

SMILES: CCNC(=O)c1cnc(OC)c(NCC#Cc2nc3c(N[C@@H]4CCN(C)C[C@@H]4F)cccn3c2SC(F)(F)F)c1 [Example 293]
- Kd ([1]; SPR, p53 Y220C): < 10 nM
- ΔTm at 10 µM [2]: ≥ 10 °C
- AC50 [3]: < 750 nM
- Emax [3]: 80 to 90%
- IC50 [4]: < 750 nM
- IC50 [5]: < 750 nM
- IC50 [6]: ≥ 10000 nM

SMILES: CNC(=O)c1ccc(C)c(NCC#Cc2cc3c(N[C@@H]4CCN(C)C[C@@H]4F)nccn3c2SC(F)(F)F)c1 [Example 294]
- Kd ([1]; SPR, p53 Y220C): < 10 nM
- ΔTm at 10 µM [2]: ≥ 10 °C
- AC50 [3]: < 750 nM
- Emax [3]: > 90%
- IC50 [4]: < 750 nM
- IC50 [5]: < 750 nM
- IC50 [6]: ≥ 10000 nM

SMILES: CNC(=O)c1ccc(NCC#Cc2cc3c(N[C@@H]4CCNC[C@@H]4F)nccn3c2SC(F)(F)F)c(OC)c1 [Example 295]
- Kd ([1]; SPR, p53 Y220C): < 10 nM
- ΔTm at 10 µM [2]: ≥ 10 °C
- AC50 [3]: < 750 nM
- Emax [3]: > 90%
- IC50 [4]: < 750 nM
- IC50 [5]: < 750 nM
- IC50 [6]: 8000 to 10000 nM

SMILES: CNC(=O)c1ccc(OC)c(NCC#Cc2nc3c(N[C@@H]4CCN(CCOC)C[C@@H]4F)cccn3c2SC(F)(F)F)c1 [Example 296]
- Kd ([1]; SPR, p53 Y220C): < 10 nM
- ΔTm at 10 µM [2]: ≥ 10 °C
- AC50 [3]: < 750 nM
- Emax [3]: 80 to 90%
- IC50 [4]: < 750 nM
- IC50 [5]: < 750 nM
- IC50 [6]: ≥ 10000 nM

SMILES: CNC(=O)c1ccc(NCC#Cc2cc3c(N[C@@H]4CCN(C)C[C@@H]4F)nccn3c2SC(F)(F)F)cc1 [Example 297]
- Kd [1]: < 10 nM
- ΔTm at 10 µM [2]: ≥ 10 °C
- AC50 [3]: < 750 nM
- Emax [3]: > 90%
- IC50 [4]: < 750 nM
- IC50 [5]: < 750 nM
- IC50 [6]: ≥ 10000 nM

SMILES: CNC(=O)c1ccc(C#N)c(NCC#Cc2cc3c(N[C@@H]4CCN(C)C[C@@H]4F)nccn3c2SC(F)(F)F)c1 [Example 300]
- Kd ([1]; SPR, p53 Y220C): < 10 nM
- ΔTm at 10 µM [2]: ≥ 10 °C
- AC50 [3]: < 750 nM
- Emax [3]: > 90%
- IC50 [4]: < 750 nM
- IC50 [5]: < 750 nM
- IC50 [6]: ≥ 10000 nM

SMILES: CNC(=O)c1cc(F)c(OC)c(NCC#Cc2nc3c(N[C@@H]4CCN(C)C[C@@H]4F)cccn3c2SC(F)(F)F)c1 [Example 303]
- Kd ([1]; SPR, p53 Y220C): < 10 nM
- ΔTm at 10 µM [2]: ≥ 10 °C
- AC50 [3]: < 750 nM
- Emax [3]: > 90%
- IC50 [4]: < 750 nM
- IC50 [5]: < 750 nM
- IC50 [6]: ≥ 10000 nM

SMILES: CNC(=O)c1cc(F)c(OC)c(NCC#Cc2nc3c(N[C@@H]4CCNC[C@@H]4F)cccn3c2SC(F)(F)F)c1 [Example 304]
- Kd ([1]; SPR, p53 Y220C): < 10 nM
- ΔTm at 10 µM [2]: ≥ 10 °C
- AC50 [3]: < 750 nM
- Emax [3]: > 90%
- IC50 [4]: < 750 nM
- IC50 [5]: < 750 nM
- IC50 [6]: < 5000 nM

SMILES: CCNC(=O)c1ccc(NCC#Cc2cc3c(N[C@@H]4CCN(C)C[C@@H]4F)nccn3c2SC(F)(F)F)c(OC)c1 [Example 306]
- Kd ([1]; SPR, p53 Y220C): < 10 nM
- ΔTm at 10 µM [2]: ≥ 10 °C
- AC50 [3]: < 750 nM
- Emax [3]: > 90%
- IC50 [4]: < 750 nM
- IC50 [5]: < 750 nM
- IC50 [6]: 5000 to 8000 nM

SMILES: CNC(=O)c1ccc(OC)c(NCC#Cc2nc3c(N[C@@H]4CCNC[C@@H]4F)nccn3c2SC(F)(F)F)c1 [Example 307]
- Kd ([1]; SPR, p53 Y220C): < 10 nM
- ΔTm at 10 µM [2]: ≥ 10 °C
- AC50 [3]: < 750 nM
- Emax [3]: 80 to 90%
- IC50 [4]: < 750 nM
- IC50 [5]: < 750 nM
- IC50 [6]: ≥ 10000 nM
